Experimental data as given in US20240246918A1, “COMPOUNDS AND COMPOSITIONS AS EIF4E INHIBITORS AND THE USES THEREOF” (Ribometrix, Inc., priority 2022, published 2024).

What was measured:
[1] = target: T1, human eIF4E protein (Homo sapiens, UniProt P06730); assay: Biochemical competitive binding assay (TR-FRET competition, EDA-m7GDP-ATTO-647N probe); conditions: read-out: hEIF4E TR-FRET IC50
T1 construct: purchased Novus NBP-45314
Method in brief: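 His-tagged human eIF4E (4 nM) was preincubated with Eu-anti-His antibody (2.5 nM) and added to compound (11-point, 4-fold dilutions) for 15 min. Then 5 nM EDA-m7GDP-ATTO-647N was added for 15 min, in HEPES pH 7.5, 100 mM KCl. The 665/620 TR-FRET ratio was normalized to controls, and IC50 was taken from 4-parameter fits.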

[2] = tested on: COLO 205 colorectal tumor cells; assay: Tumor cell viability inhibition assay (CellTiter-Glo 2.0, 72 hours); format: cell-based; conditions: COLO 205 cell viability
Method in brief: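 COLO 205 cells (1500/well, RPMI-1640 + 10% FBS) exposed for 72 h to an 11-point, 4-fold dilution series; cellular ATP read by CellTiter-Glo 2.0 luminescence. Data normalized to DMSO and maximum-inhibition controls; IC50 from 4-parameter curve fit.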

T1 sequence (P06730 whole entry): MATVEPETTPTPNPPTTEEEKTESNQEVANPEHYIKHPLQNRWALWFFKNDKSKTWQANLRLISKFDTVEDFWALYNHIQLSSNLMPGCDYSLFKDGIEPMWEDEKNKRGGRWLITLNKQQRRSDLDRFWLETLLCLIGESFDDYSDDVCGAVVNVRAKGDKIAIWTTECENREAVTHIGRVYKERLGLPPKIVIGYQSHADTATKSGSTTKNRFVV

Compound | IC50 [1] | IC50 ([2]; Homo sapiens, COLO 205, 72 h) | IC50 [2]
Cc1cc(-c2cc(Cl)ccc2OCCn2c(C)nc3c(c2=O)CC(N2CCC(OC(F)(F)F)CC2)CC3(C)C)c2scc(C(=O)O)c2n1 (single isomer, unassigned) [Compound 442, 7-(5-chloro-2-(2-(2,8,8-trimethyl-4-oxo-6-(4-(trifluoromethoxy)piperidin-1-yl)-5,6,7,8-tetrahydroquinazolin-3(4H)-yl)ethoxy)phenyl)-5-methylthieno[3,2-b]pyridine-3-carboxylic acid] | < 100 nM | 5 to 20 µM | 
Cc1cc(-c2cc(Cl)ccc2OCCn2c(C)nc3c(c2=O)CC(N2CCC(OC(F)(F)F)CC2)CC3(C)C)c2scc(C(=O)O)c2n1 (single isomer, unassigned) [Compound 443, 7-(5-chloro-2-(2-(2,8,8-trimethyl-4-oxo-6-(4-(trifluoromethoxy)piperidin-1-yl)-5,6,7,8-tetrahydroquinazolin-3(4H)-yl)ethoxy)phenyl)-5-methylthieno[3,2-b]pyridine-3-carboxylic acid] | < 100 nM |  | < 5 µM
Cc1cc(-c2cc(Cl)ccc2OCCn2c(C)nc3c(c2=O)C[C@H](N2CCC(c4ncccc4F)CC2)CC3)c2scc(C(=O)O)c2n1 (single isomer, unassigned) [Compound 444] | < 100 nM | < 5 µM | 
Cc1cc(-c2cc(Cl)ccc2OCCn2c(C)nc3c(c2=O)C[C@@H](N2CCC(c4ncccc4F)CC2)CC3)c2scc(C(=O)O)c2n1 (single isomer, unassigned) [Compound 445] | < 100 nM | < 5 µM | 
Cc1cc(-c2cc(Cl)ccc2OCCn2c(C)nc3c(c2=O)C[C@@H](N2CCC[C@@H](c4ccn(C)n4)C2)CC3)c2scc(C(=O)O)c2n1 (single isomer, unassigned) [Compound 446] | < 100 nM | > 20 µM | 
Cc1cc(-c2cc(Cl)ccc2OCCn2c(C)nc3c(c2=O)C[C@H](N2CCC[C@@H](c4ccn(C)n4)C2)CC3)c2scc(C(=O)O)c2n1 (single isomer, unassigned) [Compound 447] | < 100 nM | 5 to 20 µM | 
Cc1cc(-c2cc(Cl)ccc2OCCn2c(C)nc3c(c2=O)C[C@@H](N2CCC[C@H](c4ccn(C)n4)C2)CC3)c2scc(C(=O)O)c2n1 (single isomer, unassigned) [Compound 448] | < 100 nM | < 5 µM | 
Cc1cc(-c2cc(Cl)ccc2OCCn2c(C)nc3c(c2=O)C[C@@H](N2CCC(c4noc5ccc(F)cc45)CC2)CC3)c2scc(C(=O)O)c2n1 (single isomer, unassigned) [Compound 449] | < 100 nM | < 5 µM | 
COC1(C(F)(F)F)CCN([C@@H]2CCc3nc(C)n(CCOc4ccc(Cl)cc4-c4cc(C)nc5c(C(=O)O)csc45)c(=O)c3C2)CC1 (single isomer, unassigned) [Compound 450] | < 100 nM | < 5 µM | 
COC1(C(F)(F)F)CCN([C@H]2CCc3nc(C)n(CCOc4ccc(Cl)cc4-c4cc(C)nc5c(C(=O)O)csc45)c(=O)c3C2)CC1 (single isomer, unassigned) [Compound 451] | < 100 nM | < 5 µM | 
Cc1cc(-c2cc(Cl)ccc2OCCn2c(C)nc3c(c2=O)C[C@H](N2CCC(COC(F)(F)F)CC2)CC3)c2scc(C(=O)O)c2n1 (single isomer, unassigned) [Compound 452] | < 100 nM | < 5 µM | 
Cc1cc(-c2cc(Cl)ccc2OCCn2c(C)nc3c(c2=O)C[C@H](N2CCC(c4ccn(C)n4)CC2)CC3)c2scc(C(=O)O)c2n1 (single isomer, unassigned) [Compound 453] | < 100 nM | > 20 µM | 
Cc1cc(-c2cc(Cl)ccc2OCCn2c(C)nc3c(c2=O)C[C@@H](N2CCC(c4ccn(C)n4)CC2)CC3)c2scc(C(=O)O)c2n1 (single isomer, unassigned) [Compound 454] | < 100 nM | < 5 µM | 
Cc1cc(-c2cc(Cl)ccc2OCCn2c(C)nc3c(c2=O)C[C@H](N2CCC(c4cncc(S(=O)(=O)NC(C)(C)C)c4)CC2)CC3)c2scc(C(=O)O)c2n1 (single isomer, unassigned) [Compound 455] | < 100 nM | < 5 µM | 
Cc1cc(-c2cc(Cl)ccc2OCCn2c(C)nc3c(c2=O)C[C@@H](N2CCC(c4cncc(S(=O)(=O)NC(C)(C)C)c4)CC2)CC3)c2scc(C(=O)O)c2n1 (single isomer, unassigned) [Compound 456] | < 100 nM | 5 to 20 µM | 
Cc1cc(-c2cc(Cl)ccc2OCCn2c(C)nc3c(c2=O)C[C@H](N2CCC[C@H](OC(F)(F)F)C2)CC3)c2scc(C(=O)O)c2n1 (single isomer, unassigned) [Compound 457] | < 100 nM | < 5 µM | 
Cc1cc(-c2cc(Cl)ccc2OCCn2c(C)nc3c(c2=O)C[C@@H](N2CCC[C@@H](OC(F)(F)F)C2)CC3)c2scc(C(=O)O)c2n1 (single isomer, unassigned) [Compound 458] | < 100 nM | < 5 µM | 
Cc1cc(-c2cc(Cl)ccc2OCCn2c(C)nc3c(c2=O)CC(N2CCC(OC(F)(F)F)CC2)CC3)c2scc(C(=O)NS(=O)(=O)C(F)(F)F)c2n1 (single isomer, unassigned) [Compound 459] | < 100 nM | 5 to 20 µM | 

Compound | IC50 [1] | IC50 ([2]; Homo sapiens, COLO 205, 72 h) | IC50 [2]
Cc1cc(-c2cc(Cl)ccc2OCCn2c(C)nc3c(c2=O)C[C@H](N2CCC(c4ncco4)CC2)CC3)c2scc(C(=O)O)c2n1 (single isomer, unassigned) [Compound 460] | < 100 nM | < 5 µM | 
Cc1cc(-c2cc(Cl)ccc2OCCn2c(C)nc3c(c2=O)C[C@@H](N2CCC(c4ncco4)CC2)CC3)c2scc(C(=O)O)c2n1 (single isomer, unassigned) [Compound 461] | < 100 nM | < 5 µM | 
Cc1cc(-c2cc(Cl)ccc2OCCn2c(C)nc3c(c2=O)C[C@H](N2CCC(c4ncn(C)n4)CC2)CC3)c2scc(C(=O)O)c2n1 (single isomer, unassigned) [Compound 462] | < 100 nM | < 5 µM | 
Cc1cc(-c2cc(Cl)ccc2OCCn2c(C)nc3c(c2=O)C[C@@H](N2CCC(c4ncn(C)n4)CC2)CC3)c2scc(C(=O)O)c2n1 (single isomer, unassigned) [Compound 463] | < 100 nM | < 5 µM | 
Cc1cc(-c2cc(Cl)ccc2OCCn2c(C)nc3c(c2=O)C[C@H](N2CCC[C@H](c4ncccc4F)C2)CC3)c2scc(C(=O)O)c2n1 (single isomer, unassigned) [Compound 464] | < 100 nM | < 5 µM | 
Cc1cc(-c2cc(Cl)ccc2OCCn2c(C)nc3c(c2=O)C[C@H](N2CCC[C@@H](c4ncccc4F)C2)CC3)c2scc(C(=O)O)c2n1 (single isomer, unassigned) [Compound 465] | < 100 nM | < 5 µM | 
Cc1cc(-c2cc(Cl)ccc2OCCn2c(C)nc3c(c2=O)C[C@@H](N2CCC[C@@H](c4ncccc4F)C2)CC3)c2scc(C(=O)O)c2n1 (single isomer, unassigned) [Compound 466] | < 100 nM | < 5 µM | 
Cc1cc(-c2cc(Cl)ccc2OCCn2c(C)nc3c(c2=O)C[C@@H](N2CCC[C@H](c4ncccc4F)C2)CC3)c2scc(C(=O)O)c2n1 (single isomer, unassigned) [Compound 467] | < 100 nM | < 5 µM | 
Cc1cc(-c2cc(Cl)ccc2OCCn2c(C)nc3c(c2=O)CC(N(C)C24CC5CC(CC(C5)C2)C4)CC3)c2scc(C(=O)O)c2n1 (single isomer, unassigned) [Compound 468] | < 100 nM | < 5 µM | 
Cc1cc(-c2cc(Cl)ccc2OCCn2c(C)nc3c(c2=O)C[C@H](N2CCCCC(F)(F)C2)CC3)c2scc(C(=O)O)c2n1 (single isomer, unassigned) [Compound 469] | < 100 nM | < 5 µM | 
Cc1cc(-c2cc(Cl)ccc2OCCn2c(C)nc3c(c2=O)C[C@@H](N2CCCCC(F)(F)C2)CC3)c2scc(C(=O)O)c2n1 (single isomer, unassigned) [Compound 470] | < 100 nM | < 5 µM | 
Cc1cc(-c2cc(Cl)ccc2OCCn2c(C)nc3c(c2=O)C[C@H](N2CCC[C@@H](OC(F)(F)F)C2)CC3)c2scc(C(=O)O)c2n1 (single isomer, unassigned) [Compound 471] | < 100 nM | < 5 µM | 
Cc1cc(-c2cc(Cl)ccc2OCCn2c(C)nc3c(c2=O)C[C@@H](N2CCC[C@H](OC(F)(F)F)C2)CC3)c2scc(C(=O)O)c2n1 (single isomer, unassigned) [Compound 472] | < 100 nM | < 5 µM | 
Cc1cc(-c2cc(Cl)ccc2OCCn2c(C)nc3c(c2=O)C[C@H](N2CCC(n4cccn4)CC2)CC3)c2scc(C(=O)O)c2n1 (single isomer, unassigned) [Compound 473] | < 100 nM | < 5 µM | 
Cc1cc(-c2cc(Cl)ccc2OCCn2c(C)nc3c(c2=O)C[C@@H](N2CCC(n4cccn4)CC2)CC3)c2scc(C(=O)O)c2n1 (single isomer, unassigned) [Compound 474] | < 100 nM | < 5 µM | 
Cc1cc(-c2cc(Cl)ccc2OCCn2c(C)nc3c(c2=O)C[C@H](N2CCC(c4nccs4)CC2)CC3)c2scc(C(=O)O)c2n1 (single isomer, unassigned) [Compound 475] | < 100 nM | < 5 µM | 
Cc1cc(-c2cc(Cl)ccc2OCCn2c(C)nc3c(c2=O)C[C@@H](N2CCC(c4nccs4)CC2)CC3)c2scc(C(=O)O)c2n1 (single isomer, unassigned) [Compound 476] | < 100 nM | < 5 µM | 
Cc1cc(-c2cc(Cl)ccc2OCCn2c(C)nc3c(c2=O)C[C@H](N2CCO[C@@H](COC(F)(F)F)C2)CC3)c2scc(C(=O)O)c2n1 (single isomer, unassigned) [Compound 477] | < 100 nM | < 5 µM | 
